Test systems include MDA-MB-231 breast; HT29 colon; UO-31 renal; HOP-92 NSCLC; MDA-MB-435; DU-145 prostate; BT-549 breast; HOP-62 NSCLC; OVCAR-5 ovarian; 786-0 renal.
Test in all cases: NCI-60 cell line screen, 48 h

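All cell lines were grown in 96-well plates and treated with compound for 48 hours. GI50 is the concentration that inhibits growth by half. TGI is the concentration that stops growth completely.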

Take `Cn1cc(-c2nonc2-c2cn(C)c3ccccc23)c2ccccc21`: the GI50 with MDA-MB-231 breast was 1.35 µM; in the assay on HT29 colon, 0.519 µM; with UO-31 renal it was 0.972 µM; in the assay with HOP-92 NSCLC, 4.16 µM; in the assay with MDA-MB-435 it was 0.228 µM; in the assay on DU-145 prostate, 1.27 µM. Also, the GI50 in the assay with BT-549 breast is 1.37 µM; in the assay on HOP-62 NSCLC, 1.25 µM; in the assay with OVCAR-5 ovarian, 4.51 µM; in the assay with 786-0 renal, 1.63 µM. Also, the TGI is > 100 µM with MDA-MB-231 breast; > 100 µM in the assay with HT29 colon; > 100 µM in the assay with UO-31 renal; > 100 µM in the assay with HOP-92 NSCLC; 0.635 µM in the assay on MDA-MB-435; > 100 µM with DU-145 prostate. Further, the TGI in the assay on BT-549 breast is > 100 µM; in the assay on HOP-62 NSCLC, > 72.7 µM; with OVCAR-5 ovarian, > 100 µM; in the assay with 786-0 renal, > 100 µM.

Consider `CCn1c2ccccc2c2cc(/C=C(/C#N)C(N)=O)ccc21`, for which the GI50 in the assay on MDA-MB-231 breast was 21 µM; with HT29 colon it was 5.18 µM; in the assay with UO-31 renal, 11.7 µM; in the assay on HOP-92 NSCLC it was 16.9 µM; in the assay on MDA-MB-435, 2.53 µM; in the assay with DU-145 prostate, 13.8 µM. In addition, the GI50 is 0.938 µM in the assay with BT-549 breast, 4.81 µM with HOP-62 NSCLC, 0.668 µM with OVCAR-5 ovarian and 10.6 µM in the assay with 786-0 renal. Moreover, the TGI in the assay on MDA-MB-231 breast was > 100 µM; in the assay on HT29 colon, > 100 µM; in the assay with UO-31 renal, > 29.6 µM; in the assay on HOP-92 NSCLC, > 91.4 µM; in the assay on MDA-MB-435 it was 18.4 µM; with DU-145 prostate it was > 100 µM. In addition, the TGI with BT-549 breast was 44.7 µM; with HOP-62 NSCLC, 41.8 µM; in the assay on OVCAR-5 ovarian, 3.95 µM; in the assay with 786-0 renal, > 100 µM.

Turning to `Cc1nc2ccccc2c(/C=C/c2ccc(Br)cc2)c1C(=O)/C=C/c1ccccc1`, the GI50 in the assay on MDA-MB-231 breast was 1.84 µM; in the assay on HT29 colon, 1.48 µM; in the assay with UO-31 renal, 1.21 µM; in the assay with MDA-MB-435 it was 1.94 µM; with DU-145 prostate, 1.62 µM; with BT-549 breast, 1.86 µM. For the same compound, the results for the GI50 with HOP-62 NSCLC, in the assay on OVCAR-5 ovarian and in the assay on 786-0 renal were 1.76 µM, 1.84 µM and 1.64 µM, respectively. Besides, the TGI with MDA-MB-231 breast is 3.94 µM; in the assay with HT29 colon, 6.58 µM; in the assay on UO-31 renal, 2.44 µM; in the assay with MDA-MB-435 it was 4.69 µM; with DU-145 prostate, 3.15 µM; in the assay on BT-549 breast, 4.49 µM. Besides, the TGI in the assay on HOP-62 NSCLC is 3.4 µM; in the assay on OVCAR-5 ovarian, 3.37 µM; with 786-0 renal it was 3.18 µM.

As for `O=[N+]([O-])c1cc(S(=O)(=O)Oc2ccccc2)ccc1Cl`, the GI50 in the assay with MDA-MB-231 breast was 3.89 µM; in the assay on UO-31 renal, 1.75 µM; in the assay with HOP-92 NSCLC, 1.75 µM; with MDA-MB-435, 1.64 µM; in the assay on DU-145 prostate, 1.83 µM; in the assay with BT-549 breast, 5.43 µM. For the same compound, the GI50 in the assay on HOP-62 NSCLC is 6.06 µM; in the assay on OVCAR-5 ovarian it was 2.29 µM; in the assay on 786-0 renal, 4.65 µM. Moreover, the TGI in the assay with MDA-MB-231 breast turned out to be 16.2 µM; with UO-31 renal, 3.17 µM; with HOP-92 NSCLC, 3.39 µM; with MDA-MB-435, 3.09 µM; in the assay with DU-145 prostate it was 3.24 µM; with BT-549 breast, 17 µM. Besides, the TGI in the assay with HOP-62 NSCLC amounted to 19.2 µM; with OVCAR-5 ovarian, 5.17 µM; in the assay with 786-0 renal, 15.5 µM.

As to `CN1CCN(Cc2ccc(NC(=O)c3[nH]ncc3Nc3ncnc4sc5c(c34)CCCC5)cc2)CC1`, the GI50 in the assay with MDA-MB-231 breast was 0.333 µM; in the assay with HT29 colon, 0.234 µM; with UO-31 renal, 0.356 µM; in the assay on HOP-92 NSCLC, 1.48 µM; in the assay with MDA-MB-435, 0.291 µM; in the assay on BT-549 breast it was 1.23 µM. The GI50 is 0.286 µM in the assay on HOP-62 NSCLC, 0.383 µM with OVCAR-5 ovarian and 0.365 µM in the assay on 786-0 renal. Also, the TGI worked out at 1.45 µM in the assay with MDA-MB-231 breast; 1.92 µM in the assay with HT29 colon; 1.75 µM in the assay with UO-31 renal; 4.81 µM in the assay on HOP-92 NSCLC; 1.71 µM with MDA-MB-435; 2.65 µM with BT-549 breast. For the same compound, the figures for the TGI with HOP-62 NSCLC, with OVCAR-5 ovarian and in the assay with 786-0 renal were 1.45 µM, 1.73 µM and 1.9 µM, respectively.

Consider `CC1=CC(=O)C(O)C2(C)C1CC(O)C13COC4(C)C(OC(=O)C41)C(O)C23` (stereo not drawn), for which the GI50 in the assay on MDA-MB-231 breast was 15.4 µM; with HT29 colon, 9.02 µM; in the assay with UO-31 renal, 10.7 µM; in the assay on MDA-MB-435, 6.86 µM; in the assay with DU-145 prostate it was 4.36 µM; in the assay on BT-549 breast, 11 µM. The GI50 with HOP-62 NSCLC was 6.12 µM; with OVCAR-5 ovarian, 20.5 µM; in the assay on 786-0 renal it was 5.13 µM. The TGI with MDA-MB-231 breast was 43.9 µM; in the assay on HT29 colon it was > 100 µM; in the assay on UO-31 renal, 42.7 µM; in the assay with MDA-MB-435, 43 µM; with DU-145 prostate it was 31.6 µM; in the assay on BT-549 breast, 43.4 µM. In addition, the TGI turned out to be 36.6 µM with HOP-62 NSCLC, 78.3 µM in the assay with OVCAR-5 ovarian and 27.4 µM with 786-0 renal.

On to `CC(C)(C)CN1CCn2c(nc3c(N)nccc32)S1`, for which the GI50 with MDA-MB-231 breast was 19.8 µM; in the assay on UO-31 renal, 37.1 µM; in the assay on HOP-92 NSCLC, 96.5 µM; with MDA-MB-435 it was 6.67 µM; with DU-145 prostate it was 4.46 µM; in the assay on BT-549 breast it was 19.1 µM. The GI50 was 17 µM in the assay with HOP-62 NSCLC, 12.9 µM in the assay on OVCAR-5 ovarian and 21 µM in the assay with 786-0 renal. In addition, the TGI with MDA-MB-231 breast is > 100 µM; with UO-31 renal, > 100 µM; in the assay with HOP-92 NSCLC, > 100 µM; with MDA-MB-435, 86.1 µM; in the assay with DU-145 prostate it was > 100 µM; in the assay on BT-549 breast it was 66.1 µM. Moreover, the TGI was > 100 µM in the assay on HOP-62 NSCLC, 42 µM with OVCAR-5 ovarian and > 100 µM in the assay with 786-0 renal.

As for `COc1cc(/C=C/[N+](=O)[O-])cc(Br)c1OC`, the GI50 was 3.03 µM in the assay with MDA-MB-231 breast; 1.81 µM in the assay with HT29 colon; 1.86 µM in the assay on UO-31 renal; 2.33 µM with MDA-MB-435; 1.8 µM with DU-145 prostate; 2.77 µM in the assay on BT-549 breast. Further, the GI50 is 3.32 µM with HOP-62 NSCLC, 14.3 µM in the assay with OVCAR-5 ovarian and 1.95 µM in the assay with 786-0 renal. The TGI amounted to 8.05 µM in the assay on MDA-MB-231 breast; 3.57 µM in the assay with HT29 colon; 3.49 µM in the assay on UO-31 renal; 6.15 µM with MDA-MB-435; 3.56 µM in the assay on DU-145 prostate; 6.62 µM in the assay with BT-549 breast. Besides, the figures for the TGI in the assay with HOP-62 NSCLC, in the assay on OVCAR-5 ovarian and in the assay with 786-0 renal were 10.1 µM, 30.8 µM and 3.54 µM, respectively.

For the origin of these results see PubChem BioAssay (NCI).
